Results published in the supplement of paper PMC10307832.

What was measured:
Assay in all cases: relative viability (nuclei count vs DMSO), 5 days (fraction); higher = more cells survive
Venetoclax + OSI-027 = compound: CC1(C)CCC(CN2CCN(c3ccc(C(=O)NS(=O)(=O)c4ccc(NCC5CCOCC5)c([N+](=O)[O-])c4)c(Oc4cnc5[nH]ccc5c4)c3)CC2)=C(c2ccc(Cl)cc2)C1 [Venetoclax] + COc1cccc2cc(-c3nc([C@H]4CC[C@H](C(=O)O)CC4)n4ncnc(N)c34)[nH]c12 [OSI-027] (partner 0.5 µM)
Summary of the method: (§1)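 A single step with final 0.05% Triton X-100, 1% formaldehyde and 1 ug/ml Hoechst fixed the cells and stained nuclei 5 days after treatment. Lung cancer cell lines in 1536-well plates had been treated by pin tool the day after seeding with one drug alone or a fixed anchor-drug dose plus five library-drug doses (not always all listed) in √10 steps, and nuclei were counted on 4× images. Relative viability is the ratio of nuclei in treated wells to nuclei in vehicle wells, taken as the median of duplicate plates.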

Venetoclax + Pictilisib = compound: CC1(C)CCC(CN2CCN(c3ccc(C(=O)NS(=O)(=O)c4ccc(NCC5CCOCC5)c([N+](=O)[O-])c4)c(Oc4cnc5[nH]ccc5c4)c3)CC2)=C(c2ccc(Cl)cc2)C1 [Venetoclax] + CS(=O)(=O)N1CCN(Cc2cc3nc(-c4cccc5[nH]ncc45)nc(N4CCOCC4)c3s2)CC1 [Pictilisib] (partner 1 µM)
Summary of the method: as §1

Selumetinib + Lapatinib = compound: Cn1cnc2c(F)c(Nc3ccc(Br)cc3Cl)c(C(=O)NOCCO)cc21 [Selumetinib] + CS(=O)(=O)CCNCc1ccc(-c2ccc3ncnc(Nc4ccc(OCc5cccc(F)c5)c(Cl)c4)c3c2)o1 [Lapatinib] (partner 2 µM)
Summary of the method: as §1

Selumetinib + Dasatinib = compound: Cn1cnc2c(F)c(Nc3ccc(Br)cc3Cl)c(C(=O)NOCCO)cc21 [Selumetinib] + Cc1nc(Nc2ncc(C(=O)Nc3c(C)cccc3Cl)s2)cc(N2CCN(CCO)CC2)n1 [Dasatinib] (partner 0.075 µM)
Summary of the method: as §1

Cell Line	relative viability (Venetoclax + OSI-027; first compound 0.01 µM)	relative viability (Venetoclax + OSI-027; first compound 0.03162 µM)	relative viability (Venetoclax + OSI-027; first compound 0.1 µM)	relative viability (Venetoclax + OSI-027; first compound 0.3162 µM)	relative viability (Venetoclax + OSI-027; first compound 1 µM)	relative viability (Venetoclax + Pictilisib; first compound 0.01 µM)	relative viability (Venetoclax + Pictilisib; first compound 0.03162 µM)	relative viability (Venetoclax + Pictilisib; first compound 0.1 µM)	relative viability (Venetoclax + Pictilisib; first compound 0.3162 µM)	relative viability (Venetoclax + Pictilisib; first compound 1 µM)	relative viability (Selumetinib + Lapatinib; first compound 0.02 µM)	relative viability (Selumetinib + Lapatinib; first compound 0.06325 µM)	relative viability (Selumetinib + Lapatinib; first compound 0.2 µM)	relative viability (Selumetinib + Lapatinib; first compound 0.6325 µM)	relative viability (Selumetinib + Dasatinib; first compound 0.02 µM)	relative viability (Selumetinib + Dasatinib; first compound 0.06325 µM)	relative viability (Selumetinib + Dasatinib; first compound 0.2 µM)	relative viability (Selumetinib + Dasatinib; first compound 0.6325 µM)
NCI-H2023	0.44	0.363	0.313	0.427	0.312	0.259	0.234	0.222	0.23	0.227	0.893	0.692	0.747	0.766	0.534	0.484	0.562	0.448
NCI-H460	0.681	0.592	0.585	0.62	0.515	0.394	0.43	0.316	0.385	0.367	0.921	0.709	0.555	0.399	0.332	0.272	0.155	0.128
PC-3 [JPC-3]	0.676	0.719	0.779	0.791	0.608	0.643	0.872	0.787	0.782	0.67	0.45	0.4	0.415	0.45	0.974	0.99	0.976	0.841
HCC-15	0.653	0.67	0.721	0.658	0.549	0.652	0.804	0.629	0.706	0.701	0.786	0.575	0.463	0.398	0.296	0.231	0.19	0.146
NCI-H2228	0.423	0.545	0.62	0.546	0.396	0.321	0.416	0.395	0.358	0.494	1.01	0.765	0.852	0.695	0.428	0.454	0.405	0.39
NCI-H1650	0.531	0.856	0.606	0.783	0.529	0.531	0.713		0.723	0.622	0.704	0.639	0.704	0.721	0.333	0.298	0.323	0.337
NCI-H1975	0.768	0.788	0.667	0.702	0.68	0.351	0.33	0.258	0.284	0.282	0.856	0.65	0.794	0.674	0.333	0.299	0.272	0.269
NCI-H727	0.68	0.762	0.525	0.63	0.723	0.354	0.419	0.404	0.37	0.398	0.562	0.443	0.349	0.325	0.308	0.299	0.267	0.279
COR-L23	0.661	0.839	0.713	0.687	0.696	0.676	0.82	0.732	0.825	0.676	1.18	1.1	0.98	1	0.462	0.488	0.488	0.47
